Assay results from ChEMBL document CHEMBL5126657, “Cytotoxic Cyclodepsipeptides and Cyclopentane Derivatives from a Plant-Associated Fungus Fusarium sp” (J Nat Prod, 2022).
Where a SMILES comes first, the peptide text is derived from it. [ ]: non-standard residue; d: D form. ξ: configuration not given here. NMeF = CN[C@@H](Cc1ccccc1)C(=O)O; Hica(2S) = CC(C)C[C@H](O)C(=O)O; ξLac(3-iPr) = CC(C)CC(O)C(=O)O

What was measured:
Type in all cases: functional, cell-based
[1] = Antiproliferative activity against rat MRMT-1 cells assessed as reduction in cell viability after 48 hr by CCK-8 assay; conditions: MRMT-1, 48 h
[2] = test system: Huh-7; assay: Antiproliferative activity against human Huh-7 cells assessed as reduction in cell viability after 48 hr by CCK-8 assay; conditions: Huh-7, 48 h
[3] = test system: HepG2; assay: Antiproliferative activity against human HepG2 cells assessed as reduction in cell viability after 48 hr by CCK-8 assay; conditions: HepG2, 48 h

Row | SMILES | IC50 [1] [µM] | IC50 [2] [µM] | IC50 [3] [µM]
1 | COC(=O)/C=C/c1c(CC=C(C)C)ncn1C | > 50 | > 50 | > 50
2 | CC(C)[C@H]1OC(=O)[C@H](Cc2ccccc2)N(C)C(=O)[C@@H](C(C)C)OC(=O)[C@H](Cc2ccccc2)N(C)C(=O)[C@@H](C(C)C)OC(=O)[C@H](Cc2ccccc2)N(C)C1=O | 8.7 | 4.3 | 1
3 | CCC(C)[C@H]1OC(=O)[C@H](C(C)C)N(C)C(=O)[C@@H](C(C)CC)OC(=O)[C@H](CC(C)C)N(C)C(=O)[C@@H](C(C)CC)OC(=O)[C@H](C(C)C)N(C)C1=O (stereo partly specified) | 2.8 | 3.3 | 1.4
4 | CC[C@H](C)[C@H]1OC(=O)[C@H](C(C)C)N(C)C(=O)[C@@H](C(C)C)OC(=O)[C@H](C(C)C)N(C)C(=O)[C@@H]([C@@H](C)CC)OC(=O)[C@H](C(C)C)N(C)C1=O | 2.7 | 6.2 | 2.8
5 | CC(C)(O)[C@H]1Cc2cc(C=O)ccc2O1 | > 50 | > 50 | > 50
6 | CCCCCCCC(=O)O[C@@H]1[C@](N)(C(=O)O)CC[C@]1(O)c1ccccc1 | > 50 | > 50 | > 50
7 | CC(=O)CC(O)Cc1cc2cc(O)cc(O)c2c(=O)o1 (stereo unspecified) | > 50 | > 50 | > 50
8 | CCCCC/C=C\CCC(=O)O[C@@H]1[C@](N)(C(=O)O)CC[C@]1(O)c1ccccc1 | > 50 | > 50 | > 50
9 | CCC(C)[C@H]1OC(=O)[C@H](C(C)C)N(C)C(=O)[C@@H](C(C)CC)OC(=O)[C@H](C(C)C)N(C)C(=O)[C@@H](C(C)CC)OC(=O)[C@H](C(C)C)N(C)C1=O (stereo partly specified) | 6.8 | 9.1 | 3.3
10 | CCCCC/C=C\CCC(=O)OC1=C(c2ccccc2)CCC1=O | > 50 | > 50 | > 50
11 | CCCCCCCC(=O)OC1=C(c2ccccc2)CCC1=O | > 50 | > 50 | > 50
12 | CC(C)CC1OC(=O)[C@H](Cc2ccccc2)NC(=O)[C@H](Cc2ccccc2)NC(=O)[C@H](Cc2ccccc2)NC(=O)[C@H](Cc2ccccc2)NC(=O)[C@H](Cc2c[nH]c3ccccc23)NC1=O (stereo partly specified) (cyclo(FFFF[ξLac(3-iPr)]W)) | 17.3 | 30.3 | 15.4
13 | CC(C)CC1OC(=O)[C@H](Cc2ccccc2)NC(=O)[C@H](Cc2ccccc2)NC(=O)[C@H](Cc2ccccc2)NC(=O)[C@H](Cc2ccc(O)cc2)NC1=O (stereo partly specified) (cyclo(FFF[ξLac(3-iPr)]Y)) | > 50 | 46.2 | 10.7
14 | CC(C)C[C@@H]1OC(=O)[C@H](Cc2ccccc2)N(C)C(=O)[C@@H]2CCCN2C(=O)[C@H](C(C)C)NC(=O)[C@H](Cc2ccccc2)NC(=O)[C@@H]2CCCN2C(=O)[C@@H]2CCCN2C1=O (cyclo(FVP[NMeF][Hica(2S)]PP)) | > 50 | > 50 | 20.1
15 | CCC(C)C1NC(=O)C(CC(C)C)NC(=O)C(C(C)CC)NC(=O)C(CC(C)C)NC(=O)C(CC(C)C)NC1=O (stereo unspecified) (cyclo(ILILL); configuration not given here) | > 50 | > 50 | 14.1
16 | O=c1[nH]cc(F)c(=O)[nH]1 [FLUOROURACIL] | 25.7 | 30.3 | 36.1
17 | CN1C(=O)[C@@](C)(O)C(=O)[C@@H]1Cc1ccc2c(c1)CC(C(C)(C)O)O2 (stereo partly specified) [RIGIDIUSCULAMIDE C] | > 50 | > 50 | > 50
